According to US11897862B2 (Gilead Sciences, Inc., priority 2022, dated 2024):

Key:
[1] = molecular target: T1, IKZF1 (Homo sapiens, UniProt Q13422+Q96SW2); experiment: HEK293 HiBiT in vitro degradation of IKZF1; assay type: cell-based; settings: for Dmax: HEK293, HEK293 HiBiT, maximum degradation at the highest concentration tested; for DC50: HEK293 HiBiT, 18-24 hr incubation, normalized to DMSO control, read-out: IKZF1 EC50
T1 construct: expressed in transfected cells
Procedure, shortened: (§1)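 Cellular target level is measured as luminescence from an 11-residue HiBiT tag fused via a linker to the C-terminus of IKZF1, IKZF2 or SALL4 in stable Flp-In T-REx HEK293 pools. Reporter expression is induced overnight with doxycycline ([…] final), and compounds act for 18-24 h before lytic detection.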

[2] = molecular target: IKZF2 (Homo sapiens, UniProt Q96SW2+Q9UKS7); experiment: HEK293 HiBiT in vitro degradation of IKZF2; assay type: cell-based; design: expressed in transfected cells; settings: for Dmax: HEK293, HEK293 HiBiT, maximum degradation at the highest concentration tested; for DC50: HEK293 HiBiT, 18-24 hr incubation, normalized to DMSO control, read-out: IKZF2 EC50
IKZF2, sequence (Q9UKS7 1-500 isoform Q9UKS7-2): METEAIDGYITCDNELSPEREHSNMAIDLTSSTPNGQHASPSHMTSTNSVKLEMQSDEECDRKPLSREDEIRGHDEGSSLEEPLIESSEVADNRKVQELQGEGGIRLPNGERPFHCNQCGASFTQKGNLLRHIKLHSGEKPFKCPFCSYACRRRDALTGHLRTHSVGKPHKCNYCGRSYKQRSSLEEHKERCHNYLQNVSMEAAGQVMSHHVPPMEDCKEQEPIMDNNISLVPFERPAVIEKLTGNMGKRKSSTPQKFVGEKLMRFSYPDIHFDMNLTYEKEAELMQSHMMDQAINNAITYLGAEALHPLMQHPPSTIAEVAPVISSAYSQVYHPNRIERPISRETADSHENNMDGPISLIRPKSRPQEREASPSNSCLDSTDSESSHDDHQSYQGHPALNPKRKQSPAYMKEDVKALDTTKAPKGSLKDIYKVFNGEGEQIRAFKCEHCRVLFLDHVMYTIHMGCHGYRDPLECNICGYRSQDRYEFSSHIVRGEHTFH
IKZF2, sequence (Q96SW2 whole entry): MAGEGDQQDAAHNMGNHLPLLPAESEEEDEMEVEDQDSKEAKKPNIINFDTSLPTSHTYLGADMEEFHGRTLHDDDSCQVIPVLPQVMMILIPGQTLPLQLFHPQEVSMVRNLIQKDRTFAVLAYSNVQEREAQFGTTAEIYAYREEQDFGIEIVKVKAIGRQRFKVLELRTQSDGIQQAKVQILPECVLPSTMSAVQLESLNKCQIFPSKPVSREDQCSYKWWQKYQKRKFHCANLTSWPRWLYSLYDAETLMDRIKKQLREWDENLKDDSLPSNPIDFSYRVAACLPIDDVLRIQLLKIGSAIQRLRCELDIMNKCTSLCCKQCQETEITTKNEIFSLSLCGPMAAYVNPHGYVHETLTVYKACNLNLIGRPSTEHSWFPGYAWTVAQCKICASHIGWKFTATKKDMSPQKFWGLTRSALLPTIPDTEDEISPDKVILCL
IKZF2, sequence (Q16531 whole entry partner): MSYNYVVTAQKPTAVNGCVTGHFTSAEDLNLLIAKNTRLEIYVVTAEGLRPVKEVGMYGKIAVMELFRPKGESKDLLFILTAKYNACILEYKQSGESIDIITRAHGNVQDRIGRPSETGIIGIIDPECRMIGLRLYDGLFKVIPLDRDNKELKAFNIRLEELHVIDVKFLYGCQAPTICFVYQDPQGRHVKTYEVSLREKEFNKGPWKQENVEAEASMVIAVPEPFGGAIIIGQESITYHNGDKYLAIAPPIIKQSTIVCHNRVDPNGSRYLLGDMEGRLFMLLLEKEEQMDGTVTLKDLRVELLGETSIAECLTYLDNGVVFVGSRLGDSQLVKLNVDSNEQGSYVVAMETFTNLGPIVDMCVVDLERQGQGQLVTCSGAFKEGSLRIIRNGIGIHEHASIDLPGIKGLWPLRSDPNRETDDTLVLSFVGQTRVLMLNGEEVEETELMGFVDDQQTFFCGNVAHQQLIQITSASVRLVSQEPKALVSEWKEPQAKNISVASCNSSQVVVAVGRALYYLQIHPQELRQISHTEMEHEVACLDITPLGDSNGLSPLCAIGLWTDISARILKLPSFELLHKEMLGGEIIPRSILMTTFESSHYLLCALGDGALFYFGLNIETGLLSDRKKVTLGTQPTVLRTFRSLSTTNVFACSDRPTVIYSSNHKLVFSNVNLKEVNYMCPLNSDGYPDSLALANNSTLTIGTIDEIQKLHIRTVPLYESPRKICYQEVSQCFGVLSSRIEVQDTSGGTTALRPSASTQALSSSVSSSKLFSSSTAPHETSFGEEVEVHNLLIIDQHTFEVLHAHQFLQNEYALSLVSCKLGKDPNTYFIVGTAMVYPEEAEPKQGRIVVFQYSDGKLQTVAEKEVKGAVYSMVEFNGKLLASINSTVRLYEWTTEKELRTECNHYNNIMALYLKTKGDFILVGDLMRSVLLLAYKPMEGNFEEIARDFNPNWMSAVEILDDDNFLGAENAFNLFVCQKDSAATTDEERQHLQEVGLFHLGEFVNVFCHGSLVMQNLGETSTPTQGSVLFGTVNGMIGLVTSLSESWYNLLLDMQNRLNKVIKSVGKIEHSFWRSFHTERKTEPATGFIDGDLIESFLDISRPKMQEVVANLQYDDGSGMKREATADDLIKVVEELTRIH
Procedure, shortened: as §1

T1 sequence (Q13422 whole entry): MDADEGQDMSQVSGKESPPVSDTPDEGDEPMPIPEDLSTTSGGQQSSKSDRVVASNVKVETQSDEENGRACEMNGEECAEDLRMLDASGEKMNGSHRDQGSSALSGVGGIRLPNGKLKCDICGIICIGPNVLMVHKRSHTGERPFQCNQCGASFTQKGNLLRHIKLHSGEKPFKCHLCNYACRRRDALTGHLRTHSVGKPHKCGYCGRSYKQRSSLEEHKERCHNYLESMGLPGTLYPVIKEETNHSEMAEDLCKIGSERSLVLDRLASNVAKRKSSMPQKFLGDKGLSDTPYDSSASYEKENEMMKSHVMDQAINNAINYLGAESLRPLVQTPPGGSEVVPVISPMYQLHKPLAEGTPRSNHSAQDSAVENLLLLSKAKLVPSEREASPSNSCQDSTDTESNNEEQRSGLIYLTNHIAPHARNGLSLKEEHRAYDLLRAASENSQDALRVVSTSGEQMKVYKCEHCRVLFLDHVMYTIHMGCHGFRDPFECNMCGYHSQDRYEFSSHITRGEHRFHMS
T1 sequence (Q96SW2 whole entry): as the sequence (Q96SW2 whole entry) above
T1 sequence (Q16531 whole entry partner): as the sequence (Q16531 whole entry partner) above

Row | SMILES | Dmax [1] [%] | DC50 [1] [nM] | Dmax [2] [%] | DC50 [2] [nM]
1 | CC(C)N[C@H]1CC=CC[C@@H]1Cc1ccc2c(c1)CN(C1CCC(=O)NC1=O)C2=O (stereo partly drawn) [Example 54, 3-(5-(((1R,6S)-6-(isopropylamino)cyclohex-3-en-1-yl)methyl)-1-oxoisoindolin-2-yl)piperidine-2,6-dione] |  | > 1000 | 86 | 31
2 | O=C1CCC(N2Cc3cc(C[C@H]4CCCC[C@@H]4N4CC(c5ccccc5)C4)ccc3C2=O)C(=O)N1 (stereo partly drawn) [Example 55, 3-(1-oxo-5-(((1R,2S)-2-(3-phenylazetidin-1-yl)cyclohexyl)methyl)isoindolin-2-yl)piperidine-2,6-dione] |  | > 1000 | 87 | 25
3 | CC(C)(C)CN[C@H]1CCCC[C@@H]1Cc1ccc2c(c1)CN(C1CCC(=O)NC1=O)C2=O (stereo partly drawn) [Example 57, 3-(5-(((1R,2S)-2-(neopentylamino)cyclohexyl)methyl)-1-oxoisoindolin-2-yl)piperidine-2,6-dione] |  | > 1000 | 89 | 25
4 | O=C1CCC(N2Cc3cc(C[C@H]4CCCC[C@@H]4NCc4cnccn4)ccc3C2=O)C(=O)N1 (stereo partly drawn) [Example 59, 3-(1-oxo-5-(((1R,2S)-2-((pyrazin-2-ylmethyl)amino)cyclohexyl)methyl)isoindolin-2-yl)piperidine-2,6-dione] |  | > 1000 | 77 | 75
5 | O=C1CCC(N2Cc3cc(C[C@H]4CCCC[C@@H]4NCC4OCCO4)ccc3C2=O)C(=O)N1 (stereo partly drawn) [Example 60, 3-(5-(((1R,2S)-2-(((1,3-dioxolan-2-yl)methyl)amino)cyclohexyl)methyl)-1-oxoisoindolin-2-yl)piperidine-2,6-dione] |  | > 1000 | 63 | 65
6 | C[C@@H](N[C@H]1CCCC[C@@H]1Cc1ccc2c(c1)CN(C1CCC(=O)NC1=O)C2=O)c1ccccc1 (stereo partly drawn) [Example 61, 3-(1-oxo-5-(((1R,2S)-2-(((R)-1-phenylethyl)amino)cyclohexyl)methyl)isoindolin-2-yl)piperidine-2,6-dione] |  | > 1000 | 95 | 23
7 | O=C1CCC(N2Cc3cc(C[C@H]4CCCC[C@@H]4NCc4cccnc4F)ccc3C2=O)C(=O)N1 (stereo partly shown) [Example 62] |  | > 1000 | 79 | 56
8 | O=C1CCC(N2Cc3cc(C[C@H]4CCCC[C@@H]4NCCOc4ccccc4Cl)ccc3C2=O)C(=O)N1 (stereo partly shown) [Example 65] |  | > 1000 | 64 | 48
9 | C[C@H](N[C@H]1CCCC[C@@H]1Cc1ccc2c(c1)CN(C1CCC(=O)NC1=O)C2=O)c1ccccc1 (stereo partly drawn) [Example 66, 3-(1-oxo-5-(((1R,2S)-2-(((S)-1-phenylethyl)amino)cyclohexyl)methyl)isoindolin-2-yl)piperidine-2,6-dione] |  | > 1000 | 89 | 17
10 | O=C1CCC(N2Cc3cc(C[C@H]4CCCC[C@@H]4N4CC(OCC5CC5)C4)ccc3C2=O)C(=O)N1 (stereo partly drawn) [Example 67, 3-(5-(((1R,2S)-2-(3-(cyclopropylmethoxy)azetidin-1-yl)cyclohexyl)methyl)-1-oxo-isoindolin-2-yl)piperidine-2,6-dione] |  | > 1000 | 74 | 30
11 | O=C1CCC(N2Cc3cc(C[C@H]4CCCC[C@@H]4NCC4COC4)ccc3C2=O)C(=O)N1 (stereo partly drawn) [Example 68, 3-(5-(((1R,2S)-2-((oxetan-3-ylmethyl)amino)cyclohexyl)methyl)-1-oxoisoindolin-2-yl)piperidine-2,6-dione] |  | > 1000 | 91 | 31
12 | O=C1CCC(N2Cc3cc(C[C@H]4CCCC[C@@H]4NCC4CCOC4)ccc3C2=O)C(=O)N1 (stereo partly shown) [Example 69] |  | > 1000 | 91 | 19
13 | O=C1CCC(N2Cc3cc(C[C@H]4CCCC[C@@H]4N(CC4CCOCC4)CC4CCOCC4)ccc3C2=O)C(=O)N1 (stereo partly shown) [Example 70] |  | > 1000 | 48 | 80

Further lines, results first:

Row | Dmax [1] [%] | DC50 [1] [nM] | Dmax [2] [%] | DC50 [2] [nM] | SMILES
14 | 33 | 101 | 89 | 46 | O=C1CCC(N2Cc3cc(C[C@H]4CCCC[C@@H]4NCc4cscn4)ccc3C2=O)C(=O)N1 (stereo partly drawn) [Example 36, 3-(1-oxo-5-(((1R,2S)-2-((thiazol-4-ylmethyl)amino)cyclohexyl)methyl)isoindolin-2-yl)piperidine-2,6-dione]
15 |  | > 1000 | 69 | 172 | O=C1CCC(N2Cc3cc(C[C@H]4CCCC[C@@H]4NCc4nccs4)ccc3C2=O)C(=O)N1 (stereo partly drawn) [Example 37, 3-(1-oxo-5-(((1R,2S)-2-((thiazol-2-ylmethyl)amino)cyclohexyl)methyl)isoindolin-2-yl)piperidine-2,6-dione]
16 |  | > 1000 | 97 | 192 | Cn1ccc(CN[C@H]2CCCC[C@@H]2Cc2ccc3c(c2)CN(C2CCC(=O)NC2=O)C3=O)n1 (stereo partly drawn) [Example 38, 3-(5-(((1R,2S)-2-(((1-methyl-1H-pyrazol-3-yl)methyl)amino)cyclohexyl)methyl)-1-oxoisoindolin-2-yl)piperidine-2,6-dione]
17 | 34 | 265 | 86 | 47 | Cn1nccc1CN[C@H]1CCCC[C@@H]1Cc1ccc2c(c1)CN(C1CCC(=O)NC1=O)C2=O (stereo partly drawn) [Example 39, 3-(5-(((1R,2S)-2-(((1-methyl-1H-pyrazol-5-yl)methyl)amino)cyclohexyl)methyl)-1-oxoisoindolin-2-yl)piperidine-2,6-dione]
18 |  | > 1000 | 81 | 45 | O=C1CCC(N2Cc3cc(C[C@H]4CCCC[C@@H]4NCc4ccncc4)ccc3C2=O)C(=O)N1 (stereo partly drawn) [Example 40, 3-(1-oxo-5-(((1R,2S)-2-((pyridin-4-ylmethyl)amino)cyclohexyl)methyl)isoindolin-2-yl)piperidine-2,6-dione]
19 | 44 | 216 | 90 | 24 | O=C1CCC(N2Cc3cc(C[C@H]4CCCC[C@@H]4NCc4cccnc4)ccc3C2=O)C(=O)N1 (stereo partly drawn) [Example 41, 3-(1-oxo-5-(((1R,2S)-2-((pyridin-3-ylmethyl)amino)cyclohexyl)methyl)isoindolin-2-yl)piperidine-2,6-dione]
20 |  | > 1000 | 78 | 126 | Cn1cc(CN[C@H]2CCCC[C@@H]2Cc2ccc3c(c2)CN(C2CCC(=O)NC2=O)C3=O)cn1 (stereo partly drawn) [Example 42, 3-(5-(((1R,2S)-2-(((1-methyl-1H-pyrazol-4-yl)methyl)amino)cyclohexyl)methyl)-1-oxoisoindolin-2-yl)piperidine-2,6-dione]
21 |  | > 1000 | 45 | 91 | O=C1CCC(N2Cc3cc(C[C@H]4CCCC[C@@H]4NCc4c(F)cncc4F)ccc3C2=O)C(=O)N1 (stereo partly drawn) [Example 43, 3-(5-(((1R,2S)-2-(((3,5-difluoropyridin-4-yl)methyl)amino)cyclohexyl)methyl)-1-oxoisoindolin-2-yl)piperidine-2,6-dione]
22 |  | > 1000 | 60 | 67 | O=C1CCC(N2Cc3cc(C[C@H]4CCCC[C@@H]4NCc4ncc(F)cc4F)ccc3C2=O)C(=O)N1 (stereo partly drawn) [Example 44, 3-(5-(((1R,2S)-2-(((3,5-difluoropyridin-2-yl)methyl)amino)cyclohexyl)methyl)-1-oxoisoindolin-2-yl)piperidine-2,6-dione]
23 |  | > 1000 | 71 | 131 | O=C1CCC(N2Cc3cc(C[C@H]4CCCC[C@@H]4NCc4ccccn4)ccc3C2=O)C(=O)N1 (stereo partly drawn) [Example 45, 3-(1-oxo-5-(((1R,2S)-2-((pyridin-2-ylmethyl)amino)cyclohexyl)methyl)isoindolin-2-yl)piperidine-2,6-dione]
24 |  | > 1000 | 93 | 6 | O=C1CCC(N2Cc3cc(C[C@H]4CCCC[C@@H]4NC4CC4)ccc3C2=O)C(=O)N1 (stereo partly drawn) [Example 47, 3-(5-(((1R,2S)-2-(cyclopropylamino)cyclohexyl)methyl)-1-oxoisoindolin-2-yl)piperidine-2,6-dione]
25 |  | > 1000 | 96 | 24 | O=C1CCC(N2Cc3cc(C[C@H]4CCCC[C@@H]4NC4CCC4)ccc3C2=O)C(=O)N1 (stereo partly drawn) [Example 48, 3-(5-(((1R,2S)-2-(cyclobutylamino)cyclohexyl)methyl)-1-oxoisoindolin-2-yl)piperidine-2,6-dione]
26 |  | > 1000 | 66 | 88 | O=C1CCC(N2Cc3cc(C[C@H]4CCCC[C@@H]4NCc4ccc(F)cn4)ccc3C2=O)C(=O)N1 (stereo partly drawn) [Example 49, 3-(5-(((1R,2S)-2-(((5-fluoropyridin-2-yl)methyl)amino)cyclohexyl)methyl)-1-oxoisoindolin-2-yl)piperidine-2,6-dione]
27 |  | > 1000 | 57 | 111 | O=C1CCC(N2Cc3cc(C[C@H]4CCCC[C@@H]4NCc4ncccc4F)ccc3C2=O)C(=O)N1 (stereo partly drawn) [Example 50, 3-(5-(((1R,2S)-2-(((3-fluoropyridin-2-yl)methyl)amino)cyclohexyl)methyl)-1-oxoisoindolin-2-yl)piperidine-2,6-dione]
28 |  | > 1000 | 80 | 45 | O=C1CCC(N2Cc3cc(C[C@H]4CCCC[C@@H]4NCc4cncc(F)c4)ccc3C2=O)C(=O)N1 (stereo partly drawn) [Example 51, 3-(5-(((1R,2S)-2-(((5-fluoropyridin-3-yl)methyl)amino)cyclohexyl)methyl)-1-oxoisoindolin-2-yl)piperidine-2,6-dione]
29 | 34 | 206 | 75 | 46 | O=C1CCC(N2Cc3cc(C[C@H]4CCCC[C@@H]4NCc4cccnc4C(F)(F)F)ccc3C2=O)C(=O)N1 (stereo partly drawn) [Example 58, 3-(1-oxo-5-(((1R,2S)-2-(((2-(trifluoromethyl)pyridin-3-yl)methyl)amino)cyclohexyl)methyl)isoindolin-2-yl)piperidine-2,6-dione]
